Reference: ChEMBL document CHEMBL4312034, “Virtual screening-driven discovery of dual 5-HT6/5-HT2A receptor ligands with pro-cognitive properties” (Eur J Med Chem, 2020)

How the values were obtained:
[1] = Half life in rat liver microsomes up to 60 mins by HPLC-LC/MS analysis
[2] = in vitro; details: rat
[3] = target: T1, 5-hydroxytryptamine receptor 6 (Homo sapiens, UniProt P50406); experiment: Displacement of [3H]-LSD from human 5-HT6R expressed in HEK293 cells after 1 hr by microbeta plate reader analysis; type: cell-based
T1 sequence (P50406 whole entry): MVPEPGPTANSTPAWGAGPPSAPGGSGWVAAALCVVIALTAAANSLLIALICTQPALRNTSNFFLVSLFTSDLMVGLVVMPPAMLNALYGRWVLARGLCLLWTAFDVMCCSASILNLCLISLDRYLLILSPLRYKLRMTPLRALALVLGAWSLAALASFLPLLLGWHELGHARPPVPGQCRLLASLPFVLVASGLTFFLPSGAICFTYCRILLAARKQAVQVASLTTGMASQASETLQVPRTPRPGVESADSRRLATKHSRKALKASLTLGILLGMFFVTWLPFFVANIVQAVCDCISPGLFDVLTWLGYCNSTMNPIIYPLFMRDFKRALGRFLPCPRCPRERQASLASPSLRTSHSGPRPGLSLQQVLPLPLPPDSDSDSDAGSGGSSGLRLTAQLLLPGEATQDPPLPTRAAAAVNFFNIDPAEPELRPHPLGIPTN

[4] = target: T1, 5-hydroxytryptamine receptor 6; experiment: Binding affinity to 5-HT6R (unknown origin) assessed as inhibitory constant
[5] = target: T2, 5-hydroxytryptamine receptor 1A (Homo sapiens, UniProt P08908); experiment: Displacement of [3H]-8-OH-DPAT from human 5-HT1A receptor expressed in HEK293 cells after 1 hr by microbeta plate reader analysis; type: cell-based
T2 sequence (P08908 whole entry): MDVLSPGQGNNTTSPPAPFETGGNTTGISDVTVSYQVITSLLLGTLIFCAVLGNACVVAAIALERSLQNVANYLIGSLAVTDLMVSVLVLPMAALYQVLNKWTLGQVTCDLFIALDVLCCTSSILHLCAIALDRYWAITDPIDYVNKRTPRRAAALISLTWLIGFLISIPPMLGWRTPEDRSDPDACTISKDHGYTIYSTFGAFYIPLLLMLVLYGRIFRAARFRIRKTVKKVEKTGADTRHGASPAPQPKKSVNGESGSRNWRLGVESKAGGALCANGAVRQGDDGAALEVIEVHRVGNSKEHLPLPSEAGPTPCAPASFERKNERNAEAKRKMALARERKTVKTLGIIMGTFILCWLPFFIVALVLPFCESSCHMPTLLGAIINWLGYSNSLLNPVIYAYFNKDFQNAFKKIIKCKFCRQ

[6] = target: T3, 5-HT2C receptor (Homo sapiens, UniProt P28335); experiment: Inhibition of 5-HT2C receptor (unknown origin) at 10^-6 M relative to control
T3 sequence (P28335 whole entry): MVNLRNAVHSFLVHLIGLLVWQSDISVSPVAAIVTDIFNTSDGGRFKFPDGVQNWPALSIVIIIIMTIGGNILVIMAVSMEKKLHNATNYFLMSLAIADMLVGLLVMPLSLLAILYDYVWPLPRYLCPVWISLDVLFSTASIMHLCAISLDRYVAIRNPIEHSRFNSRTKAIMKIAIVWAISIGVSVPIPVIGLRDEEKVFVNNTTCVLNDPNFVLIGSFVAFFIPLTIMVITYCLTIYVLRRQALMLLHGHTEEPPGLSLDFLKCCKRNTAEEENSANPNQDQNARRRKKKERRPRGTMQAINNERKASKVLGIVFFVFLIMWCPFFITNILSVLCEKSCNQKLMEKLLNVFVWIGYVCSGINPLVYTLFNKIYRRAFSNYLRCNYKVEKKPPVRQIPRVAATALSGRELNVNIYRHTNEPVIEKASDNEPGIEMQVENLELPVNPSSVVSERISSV

[7] = target: 5-hydroxytryptamine receptor 7 (Homo sapiens, UniProt P34969); experiment: Displacement of [3H]-CT from human 5-HT7 receptor expressed in HEK293 cells after 1 hr by microbeta plate reader analysis; type: cell-based
5-hydroxytryptamine receptor 7, sequence (P34969 whole entry): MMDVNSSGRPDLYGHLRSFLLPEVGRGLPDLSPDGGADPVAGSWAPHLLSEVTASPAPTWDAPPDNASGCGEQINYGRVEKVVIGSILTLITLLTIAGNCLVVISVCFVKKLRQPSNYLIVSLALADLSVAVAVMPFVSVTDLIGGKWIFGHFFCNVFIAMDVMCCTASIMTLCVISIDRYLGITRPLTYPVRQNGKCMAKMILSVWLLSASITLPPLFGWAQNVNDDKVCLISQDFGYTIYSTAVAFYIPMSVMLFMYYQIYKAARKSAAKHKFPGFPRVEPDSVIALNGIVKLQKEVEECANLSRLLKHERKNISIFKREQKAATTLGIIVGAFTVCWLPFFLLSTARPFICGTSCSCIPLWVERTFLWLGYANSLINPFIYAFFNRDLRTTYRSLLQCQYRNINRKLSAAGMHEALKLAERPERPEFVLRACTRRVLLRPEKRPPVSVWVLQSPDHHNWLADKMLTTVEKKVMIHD

[8] = target: D(2) dopamine receptor (Homo sapiens, UniProt P14416); experiment: Displacement of [3H]-raclopride from human D2R expressed in HEK293 cells after 1 hr by microbeta plate reader analysis; type: cell-based
D(2) dopamine receptor, sequence (P14416 whole entry): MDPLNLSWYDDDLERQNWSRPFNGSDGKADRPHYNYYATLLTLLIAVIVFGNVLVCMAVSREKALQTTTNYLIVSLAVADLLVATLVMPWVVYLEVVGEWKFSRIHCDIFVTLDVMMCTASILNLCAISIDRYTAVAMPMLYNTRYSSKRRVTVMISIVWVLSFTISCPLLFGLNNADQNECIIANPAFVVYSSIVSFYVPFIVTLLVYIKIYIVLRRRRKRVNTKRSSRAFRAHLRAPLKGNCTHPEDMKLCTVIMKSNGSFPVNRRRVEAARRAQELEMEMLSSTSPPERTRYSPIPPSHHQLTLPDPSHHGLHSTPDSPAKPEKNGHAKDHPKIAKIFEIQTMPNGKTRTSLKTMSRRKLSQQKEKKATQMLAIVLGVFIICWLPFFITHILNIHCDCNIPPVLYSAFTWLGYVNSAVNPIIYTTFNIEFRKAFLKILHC

[9] = target: 5-hydroxytryptamine receptor 2A (Homo sapiens, UniProt P28223); experiment: Binding affinity to human 5-HT2AR expressed in HEK293 cells by competitive binding assay; type: cell-based
5-hydroxytryptamine receptor 2A, sequence (P28223 whole entry): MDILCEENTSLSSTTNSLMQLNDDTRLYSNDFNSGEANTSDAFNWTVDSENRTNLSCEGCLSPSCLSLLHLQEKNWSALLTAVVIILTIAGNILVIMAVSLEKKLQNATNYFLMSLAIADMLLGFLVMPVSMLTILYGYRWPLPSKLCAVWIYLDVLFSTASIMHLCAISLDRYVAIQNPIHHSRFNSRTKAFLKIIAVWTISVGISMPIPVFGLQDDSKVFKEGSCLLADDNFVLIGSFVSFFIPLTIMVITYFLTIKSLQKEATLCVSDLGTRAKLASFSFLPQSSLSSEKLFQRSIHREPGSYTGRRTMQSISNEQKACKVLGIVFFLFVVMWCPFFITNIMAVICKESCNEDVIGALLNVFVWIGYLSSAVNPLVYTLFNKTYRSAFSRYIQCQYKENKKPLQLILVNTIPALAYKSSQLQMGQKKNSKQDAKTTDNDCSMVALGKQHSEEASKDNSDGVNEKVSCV

## COc1ccc2[nH]cc(CCN(C)Cc3ccc(-c4ccc(O)cc4)o3)c2c1
[1]; microsomes
  half-life at 1 h: 10 min
[2]; microsomes
  microsomal CLint at 1 h: 138 µL/min/mg
[3]
  Ki: 199 nM

## COc1cc2c(cc1OC)C(=O)C(CC1CCN(Cc3ccccc3)CC1)C2 (stereo unspecified) [DONEPEZIL]
[1]; microsomes
  half-life at 1 h: 96 min
[2]; microsomes
  microsomal CLint at 1 h: 14.4 µL/min/mg

## CCc1cc2c(N3CCN(C)CC3)nc(C)nc2s1
[4]
  Ki: 316 nM

## Oc1ccc(-c2ccc(CNCCc3c[nH]c4ccc(F)cc34)o2)cc1
[1]; microsomes
  half-life at 1 h: 6 min
[5]
  Ki: 1010 nM
[6]
  inhibition at 1 µM: 99%
[7]
  Ki: 895 nM
[8]
  Ki: 376 nM
[9]
  Ki: 11 nM
[2]; microsomes
  microsomal CLint at 1 h: 251 µL/min/mg
[3]
  Ki: 2 nM

## N=C(NC1=NC2CCCCC2C(=O)N1)N1CCC(Cc2ccccc2)CC1 (stereo unspecified)
[4]
  Ki: 21 nM

## Cc1nc(N2CCCN(C)CC2)c2c3c(sc2n1)CCC3
[4]
  Ki: 198 nM

## CC(CSc1nc2ccccc2c(=O)n1-c1ccc(Cl)cc1)N(C)C (stereo unspecified)
[4]
  Ki: 20 nM

## CN1CCN(c2oc(-c3ccccc3Cl)nc2S(=O)(=O)c2ccccc2)CC1
[4]
  Ki: 61 nM

## CC1=CC=CN2C(=O)C3C=C(S(=O)(=O)c4ccccc4)C(=N)N(Cc4ccc(F)cc4)C3N=C12 (stereo unspecified)
[4]
  Ki: 594 nM

## COc1ccc(Cc2nc(N3CCNCC3)nc3cccnc23)c(OC)c1
[4]
  Ki: 58 nM

## COc1ccc2[nH]c(C)c(CCNCc3ccc(-c4ccc(O)cc4)o3)c2c1
[1]; liver microsomes
  half-life at 1 h: 8 min
[7]
  Ki: 5320 nM
[8]
  Ki: 167 nM
[9]
  Ki: 42 nM
[2]; liver microsomes
  microsomal CLint at 1 h: 184 µL/min/mg
[3]
  Ki: 21 nM
